From US20130029973A1, “TETRAHYDROBENZOTHIOPHENE COMPOUND” (ASTELLAS PHARMA INC., priority 2010, published 2013)

Experiments:
rat NPT-IIb = target: T1, rat NPT-IIb (Rattus norvegicus, UniProt Q9JJ09); experiment: 33P phosphate uptake inhibiting action of rat NPT-IIb expressing cell; type: cell-based; conditions: HEK293; evaluation concentration 1 μM; 33P uptake in rat NPT-IIb stably expressing 293 cells; read-out: Rat NPT-IIb inhibitory rate (%)
T1 construct: rat NPT-IIb ORF was cloned into p3×FLAG-CMV-10; 3xFLAG (N); expressed in transfected cells
T1 sequence (Q9JJ09 1-695): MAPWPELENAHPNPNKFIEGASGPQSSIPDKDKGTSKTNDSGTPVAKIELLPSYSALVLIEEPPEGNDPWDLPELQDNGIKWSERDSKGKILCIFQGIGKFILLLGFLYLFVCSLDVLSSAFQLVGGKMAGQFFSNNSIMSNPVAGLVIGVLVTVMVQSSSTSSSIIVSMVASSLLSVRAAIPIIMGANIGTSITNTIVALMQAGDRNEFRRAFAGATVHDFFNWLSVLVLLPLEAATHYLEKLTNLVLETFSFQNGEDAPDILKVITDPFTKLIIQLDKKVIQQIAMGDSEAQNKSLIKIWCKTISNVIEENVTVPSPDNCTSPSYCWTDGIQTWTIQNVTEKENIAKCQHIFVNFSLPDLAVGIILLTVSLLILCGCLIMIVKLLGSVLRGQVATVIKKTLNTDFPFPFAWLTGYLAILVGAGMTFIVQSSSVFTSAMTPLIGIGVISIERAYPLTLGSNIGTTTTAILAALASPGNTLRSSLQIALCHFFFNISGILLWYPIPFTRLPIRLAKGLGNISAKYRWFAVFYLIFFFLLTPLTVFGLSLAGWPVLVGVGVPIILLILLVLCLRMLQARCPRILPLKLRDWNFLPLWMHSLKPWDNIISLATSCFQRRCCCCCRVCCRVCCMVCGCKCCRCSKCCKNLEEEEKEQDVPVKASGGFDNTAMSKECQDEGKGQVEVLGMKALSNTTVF
Text: Test Example 1: ^33P Phosphate Uptake Inhibiting Action of Rat NPT-IIb Expressing Cell
Preparation of Rat NPT-IIb Expressing Cell
Using rat small intestine cDNA library as a template, rat NPT-IIb ORF was cloned into p3×FLAG-CMV-10 by PCR according to a standard method. Then, the cloned rat NPT-IIb expressing plasmid was transfected into 293 cells, and G418 was used to obtain a rat NPT-11b-stably expressing cell line.
Evaluation System on Inhibition of Phosphate Uptake into Rat NPT-IIb Expressing Cell
The rat NPT-Hb expressing cells were seeded into a 96-well plate and incubated overnight. The medium was taken out and washed with buffer A (137 mM N-methyl-D-glucamine, 5.4 mM KCl, 2.8 mM CaCl2, 1.2 mM MgCl2, 10 mM HEPES (adjusted to pH 7.4 with HCl)), and then buffer B (137 mM NaCl, 5.4 mM KCl, 2.8 mM CaCl2, 1.2 mM MgCl2, 0.1 mM KH2PO4, 10 mM HEPES (adjusted to pH 7.4 with KOH)) was added thereto. Then, a compound having 10-fold higher concentration relative to the evaluation concentration was prepared by dilution with the buffer B and added thereto, followed by incubation in CO2 incubator. Buffer B supplemented 50 μCi/mL ^33P was added thereto, followed by further incubation in a CO2 incubator. After the reaction, the buffer was taken out and the cells were washed with buffer C (137 mM NaCl, 10 mM Tris/HCl pH 7.2). Then, Microscint-20 was added thereto and ^33P uptake was measured by using TopCount. The inhibitory rate was determined according to the following equation.
Inhibitory rate (%)=(1−(^33P uptake of drug-treated well)/(^33P uptake of DMSO-added well))×100
For several compounds of the formula (I), rat NPT-11b inhibitory activity at a pharmacological evaluation concentration of 1 μM is shown in Table 1. Here, Ex represents Example No. as denoted below (this shall apply hereinafter).

[1] = system: orally 32P phosphate loaded rats; experiment: Blood radioactivity increase inhibiting action in orally 32P phosphate loaded rats (phosphate absorption inhibitory action); type: in vivo; conditions: Rattus norvegicus, 0.5 h; 3 mg/kg oral, male Wistar rats; from serum radioactivity AUC0-30min vs control group; read-out: Phosphate absorption inhibitory rate (%)
Method: Blood Radioactivity Increase Inhibiting Action in Orally ^32P Phosphate Loaded Rats (Phosphate Absorption Inhibitory Action)
Male Wistar rats (6 to 7 weeks old) were fasted for 24 hours and used as experimental animals. The compound was dissolved or suspended with a solvent, and was used at a concentration of 0.6 mg/mL. The compound-administered animals were forcibly orally administered with the compound at a dose of 3 mg/kg. Control-group animals were administered a solvent containing no compound at a dose of 5 mL/kg. After 5 minutes from administration of the compound or from administration of the solvent, a ^32P-containing phosphate solution (8.3 mM NaH2PO4) was orally administered thereto at a dose of 7.2 mL/kg. After 15 minutes and 30 minutes, the blood was taken from the orbital venous plexus and the serum was collected. Radioactivity in 0.1 mL of the serum was measured by a liquid scintillation counter. AUC0-30min calculated from the measured counts was considered as a phosphate absorption amount. The phosphate absorption inhibitory rate was determined from the AUC0-30min value according to the following equation.
Phosphate absorption inhibitory rate (%)=(1−Phosphate absorption count of compound-administered group/Phosphate absorption count of control group)×100
As a result, it was confirmed that several compounds of the formula (I) have an intestinal phosphate absorption inhibitory action. With the several compounds of the formula (I), the phosphate absorption inhibitory rates at a pharmacological evaluation dose of 3 mg/kg are shown in Table 2.

melting point	inhibition at 1 µM (rat NPT-IIb)	Structure (SMILES)	inhibition in vivo at 3 mg/kg [1]
254.7 °C	71%	CCN(C1(C(=O)O)CC1)S(=O)(=O)c1cccc(C(=O)Nc2sc3c(c2C(=O)Nc2ccc(CCc4ccc(C(=O)O)cc4)cc2)CCCC3)c1 [Example 14, 4-{2-[4-({[2-({3-[(1-carboxycyclopropyl)(ethyl)sulfamoyl]benzoyl}amino)-4,5,6,7-tetrahydro-1-benzothiophen-3-yl]carbonyl}amino)phenyl]ethyl}benzoic acid]	47%
250.8 °C	76%	O=C(O)CCCN(C1CC1)S(=O)(=O)c1cccc(C(=O)Nc2sc3c(c2C(=O)Nc2ccc(CCc4ccc(C(=O)O)cc4)cc2)CCCC3)c1 [Example 12, 4-{2-[4-({[2-({3-[(3-carboxypropyl)(cyclopropyl)sulfamoyl]benzoyl}amino)-4,5,6,7-tetrahydro-1-benzothiophen-3-yl]carbonyl}amino)phenyl]ethyl}benzoic acid]	≥ 60%
